Legend:
[1] = tested on: γ-aminobutyric acid type A (GABAA) receptor; settings: at low nanomolar concentrations; cited from earlier work
[2] = tested on: ALLO in the cerebrospinal fluid (CSF); experiment: CSF neurosteroid content in patients with unipolar major depression after SSRI treatment; format: in vivo, human; settings: 8-10 weeks of treatment
brain ALLO content = experiment: Brain ALLO content after fluoxetine in normal and ADX/CX male rats; format: in vivo, rat
socially isolated mice = experiment: Social-isolation stress mice: brain ALLO content and barbiturate-induced sleeping time; format: in vivo; settings: single injection 2.6 μmol/Kg i.p.
[3] = tested on: ALLO content in rat brain slices; experiment: ALLO content in vitro in rat brain slices; format: cell-based
Text: Presumably, this effect was mediated via an inhibition of the oxidative function of the 3α-HSOR by the FGIN-1 drugs. Such an effect would lead to the accumulation of ALLO, since the reverse step—the reduction of 5α-DHP to ALLO was not affected by these compounds. Similar results were obtained in brain slices of ADX/CX rats.

Structure (SMILES)	modulation of GABAA receptor function [1]	concentration of ALLO in CSF [2]	increase of brain ALLO content (brain ALLO content; 5-20 mg/kg, i.p., normal and ADX/CX male rats)	brain ALLO content after fluoxetine (brain ALLO content; ADX/CX rats, increase from 2 pmol/g)	dose and time dependence of effect on brain ALLO content (brain ALLO content; also after protracted fluoxetine treatment)	brain ALLO content after fluoxetine (brain ALLO content; normal rats, increase from 3 pmol/g tissue)	brain region specificity of ALLO increase (brain ALLO content; rat brain regions)	brain content of ALLO and barbiturate-sleeping time (socially isolated mice; group-housed mice)	barbiturate-sleeping time (socially isolated mice; socially isolated mice)	brain content of ALLO (socially isolated mice; socially isolated mice)	ALLO content in rat brain slices [3]
CC(=O)[C@H]1CC[C@H]2[C@@H]3CC[C@H]4C[C@H](O)CC[C@]4(C)[C@H]3CC[C@]12C [ALLO, 5α-pregnan-3α-ol-20-one]	positively modulates										
CNCCC(Oc1ccc(C(F)(F)F)cc1)c1ccccc1 (centres unmarked) [fluoxetine]		significantly increased	2-3 fold	8 pmol/g	dose- and time-dependent	9 pmol/g tissue	most pronounced ALLO increase occurring in the olfactory bulb, cortex, and hippocampus	without altering	normalized	normalized	could increase ALLO content

Source: patent US6740500B1, “Method of screening for non-steroidal neuropsychiatric agents” (priority 2000, dated 2004)
